Values joined by “and” are separate entries in the source; they are usually repeats but may differ in a detail not shown here. Equal values may be shown once. Read-outs that look alike come from different tables or passages of the source.
Key:
[1] = Competitive equilibration experiments of Form A and Form B; format: physicochemical
Procedure: About 5 mg of Form A and about 5 mg of the mixture of Form A and Form B were added to 0.2 mL saturated solutions in following solvents: water, ethanol, acetone, acetonitrile, ethyl acetate, and pyridine/water (1/9 v/v). Obtained suspensions were stirred at 25° C. and 50° C., respectively, for a duration between 4 days to 4 weeks. Solid parts (wet cakes) were isolated by centrifugation filtration and investigated by XRPD.

[2] = for Solubility / Solubility (in words): 37° C.; for Solubility: 24 hours; for Solubility (in words): PBS buffer
[3] = Compression, dry grinding and wet granulation simulation experiments; format: physicochemical
Procedure: Compression: About 50 mg of Form B was compressed for 5 minutes under 10 MPa with a hydraulic press. Potential form change and degree of crystallinity were evaluated by XRPD.
Dry Grinding: About 20 mg of Form B was ground manually with a mortar and a pestle for 5 min. Potential form change and degree of crystallinity were evaluated by XRPD.
Wet Granulation: Water or ethanol was added drop wise to about 20 mg of Form B until the sample was wetted sufficiently. Wet sample was ground gently with a mortar and a pestle for 3 min. Post granulation sample was dried under ambient condition for 10 min. Potential form change and degree of crystallinity were evaluated by XRPD.

[4] = Solid-state thermal stability of the pamoate salt Form B; format: physicochemical
Procedure: Form B was placed at 25° C./92% relative humidity (RH) in an open container, at 40° C./75% RH in an open container, and at 60° C. in a tight container for 1 week. Samples were characterized by XRPD and HPLC and inspected for appearance including color change.

[5] = Hygroscopicity of Form B by dynamic vapor sorption (DVS); format: physicochemical
Procedure: Water sorption and desorption behavior of Form B was investigated by dynamic vapor sorption (DVS) at 25° C. with a cycle of 40-0-95-0-40% RH, dm/dt 0.002, minimum equilibration time of 60 min and maximum equilibration time 360 min.

[6] = Solid form conversion on drying, heating or storage (XRPD); format: physicochemical
[7] = after solubility test in mouse plasma
[8] = after solubility test in pH 7.4 PBS buffer
[9] = 25° C./92% RH open container, 1 week
[10] = 40° C./75% RH open container, 1 week
[11] = 60° C. in a tight container, 1 week
[12] = relative humidity 0.0 at 25° C.
[13] = relative humidity 10.0 at 25° C.
[14] = relative humidity 20.0 at 25° C.
[15] = relative humidity 30.0 at 25° C.
[16] = relative humidity 40.0 at 25° C.
[17] = relative humidity 50.0 at 25° C.
[18] = relative humidity 60.0 at 25° C.
[19] = relative humidity 70.0 at 25° C.
[20] = relative humidity 80.0 at 25° C.
[21] = relative humidity 90.0 at 25° C.
[22] = relative humidity 95.0 at 25° C.

Q: Which results are given for `COCCn1c2c([n+](Cc3cnccn3)c1C)C(=O)c1ccccc1C2=O.COCCn1c2c([n+](Cc3cnccn3)c1C)C(=O)c1ccccc1C2=O.O=C([O-])c1cc2ccccc2c(Cc2c(O)c(C(=O)[O-])cc3ccccc23)c1O` [Form A]?
A: Solid form conversion in competitive experiments ([1]; in ethanol, acetone, ACN and pyridine/water): converted to Form B; Form change by XRPD after solubility test [2]: no form change; Water solubility (in words) [2]: extremely low; XRPD of residual solids [2, 7]: Form A; XRPD of residual solids [2, 8]: Form A; XRPD of residual solids ([2]; after solubility test in water): Form A; Solubility ([2]; mouse plasma): 436 µg/mL and 403 µg/mL; Solubility ([2]; pH 7.4, PBS buffer): 84 µg/mL and 86 µg/mL; Solubility ([2]; water): 12 µg/mL and 13 µg/mL; Solubility (in words) ([2]; water, mouse plasma): comparable low solubility

Q: Which results are given for `COCCn1c2c([n+](Cc3cnccn3)c1C)C(=O)c1ccccc1C2=O.COCCn1c2c([n+](Cc3cnccn3)c1C)C(=O)c1ccccc1C2=O.O=C([O-])c1cc2ccccc2c(Cc2c(O)c(C(=O)[O-])cc3ccccc23)c1O` [Form B]?
A: Form change and crystallinity by XRPD after compression ([3]; 5 minutes under 10 MPa, hydraulic press): no form change and no obvious crystallinity decrease; Form change and crystallinity by XRPD after dry grinding ([3]; ground manually with mortar and pestle for 5 min): no form change and slight crystallinity decrease; Form change and crystallinity by XRPD after wet granulation ([3]; water or ethanol, ground 3 min, dried 10 min): no form change and no obvious crystallinity decrease; Appearance (Color) change [4, 9]: None; Purity by HPLC [4, 9]: 99.4%; XRPD [4, 9]: Form B; Physical and chemical stability ([4]; 25° C./92% RH, 40° C./75% RH, 60° C., 1 week): physically stable and chemically stable; Appearance (Color) change [4, 10]: None; Purity by HPLC [4, 10]: 99.5%; XRPD [4, 10]: Form B; Appearance (Color) change [4, 11]: none; Purity by HPLC [4, 11]: 99.4%; XRPD [4, 11]: Form B; Appearance (Color) change ([4]; Initial): None; Purity by HPLC ([4]; Initial): 99.3%; XRPD ([4]; Initial): Form B; Relative stability among solid forms ([1]; among Forms A-J): most stable form among Forms A-J; Solid form by XRPD after the DVS test [5]: still Form B; Hygroscopicity (in words) ([5]; DVS at 25° C.): slightly hygroscopic; 1st desorption weight % change [5, 12]: 0.02 weight %; 1st sorption weight % change [5, 12]: 0.02 weight %; 2nd desorption weight % change [5, 12]: 0.00 weight %; 2nd sorption weight % change [5, 12]: 0.00 weight %; 1st desorption weight % change [5, 13]: 0.06 weight %; 1st sorption weight % change [5, 13]: 0.06 weight %; 2nd desorption weight % change [5, 13]: 0.05 weight %; 2nd sorption weight % change [5, 13]: 0.04 weight %; 1st desorption weight % change [5, 14]: 0.09 weight %; 1st sorption weight % change [5, 14]: 0.08 weight %; 2nd desorption weight % change [5, 14]: 0.08 weight %; 2nd sorption weight % change [5, 14]: 0.06 weight %; 1st desorption weight % change [5, 15]: 0.13 weight %; 1st sorption weight % change [5, 15]: 0.11 weight %; 2nd desorption weight % change [5, 15]: 0.10 weight %; 2nd sorption weight % change [5, 15]: 0.08 weight %; 1st desorption weight % change [5, 16]: 0.16 weight %; 1st sorption weight % change [5, 16]: 0.12 weight %; 2nd desorption weight % change [5, 16]: 0.13 weight %; 2nd sorption weight % change [5, 16]: 0.10 weight %; 1st sorption weight % change [5, 17]: 0.15 weight %; 2nd desorption weight % change [5, 17]: 0.16 weight %; 1st sorption weight % change [5, 18]: 0.17 weight %; 2nd desorption weight % change [5, 18]: 0.18 weight %; 1st sorption weight % change [5, 19]: 0.20 weight %; 2nd desorption weight % change [5, 19]: 0.21 weight %; 1st sorption weight % change [5, 20]: 0.23 weight %; 2nd desorption weight % change [5, 20]: 0.25 weight %; 1st sorption weight % change [5, 21]: 0.35 weight %; 2nd desorption weight % change [5, 21]: 0.38 weight %; 1st sorption weight % change [5, 22]: 0.64 weight %; 2nd desorption weight % change [5, 22]: 0.64 weight %; Water absorbed ([5]; up to 95% RH at 25° C.): about 0.64%; Form change by XRPD after solubility test [2]: no form change; XRPD of residual solids [2, 7]: Form B; XRPD of residual solids [2, 8]: Form B; XRPD of residual solids ([2]; after solubility test in water): Form B; Solubility ([2]; mouse plasma): 342 µg/mL and 344 µg/mL; Solubility ([2]; pH 7.4, PBS buffer): 78 µg/mL; Solubility ([2]; water): 14 µg/mL and 13 µg/mL; Solubility (in words) ([2]; water, mouse plasma): comparable low solubility

Q: For `CCO.COCCn1c2c([n+](Cc3cnccn3)c1C)C(=O)c1ccccc1C2=O.COCCn1c2c([n+](Cc3cnccn3)c1C)C(=O)c1ccccc1C2=O.O=C([O-])c1cc2ccccc2c(Cc2c(O)c(C(=O)[O-])cc3ccccc23)c1O` [Form C], which Solid form conversion ([6]; exposure to ambient condition about 2 hours and drying at 25° C. under vacuum about 2 hours) is on record?
A: converted to a mixture of Form A and Form B

Q: For `CC(=O)N(C)C.COCCn1c2c([n+](Cc3cnccn3)c1C)C(=O)c1ccccc1C2=O.COCCn1c2c([n+](Cc3cnccn3)c1C)C(=O)c1ccccc1C2=O.O=C([O-])c1cc2ccccc2c(Cc2c(O)c(C(=O)[O-])cc3ccccc23)c1O` [Form G], which “Solid form obtained on storage” value ([6]; storing at 25° C. for about 1 day) is on record?
A: Form H

Q: Which Solid form conversion ([6]; after heating to 170° C.) does the source give for `CC(=O)N(C)C.COCCn1c2c([n+](Cc3cnccn3)c1C)C(=O)c1ccccc1C2=O.COCCn1c2c([n+](Cc3cnccn3)c1C)C(=O)c1ccccc1C2=O.O=C([O-])c1cc2ccccc2c(Cc2c(O)c(C(=O)[O-])cc3ccccc23)c1O` [Form H] here?
A: converted to a mixture of Form A and Form B

Reference: US20260250269A1, “APOPTOSIS INHIBITOR SALTS FOR CANCER” (priority 2022, published 2026)
